# The supplement of paper PMC4862054
# Key:
# Conditions in all cases: 72 h
# HCC1937 [1] = test system: HCC1937
# Method: (§1)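 Drug sensitivity and resistance testing (DSRT) of breast cancer cell lines in 384-well plates, 5 concentrations in 10-fold dilutions over a compound-specific 10,000-fold range. After 72 h, cytotoxicity was read by CellTox Green fluorescence and viability by CellTiter-Glo luminescence (multiplexed), normalised to DMSO and benzethonium chloride controls. EC50 is the inflection point of the fitted dose-response curve (bottom asymptote free, so it can be relative for partial curves) and is censored at the highest tested concentration. Rows with DSS 0 (no meaningful response) were excluded.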
# CAL-85-1 [2] = test system: CAL-85-1
# Method: as §1
# BT-474 [3] = test system: BT-474
# Method: as §1
# MDA-MB-453 [4] = test system: MDA-MB-453
# Method: as §1
# MDA-MB-231 [5] = test system: MDA-MB-231
# Method: as §1
# HCC1143 [6] = test system: HCC1143
# Method: as §1
# CAL-51 [7] = test system: CAL-51
# Method: as §1
# DU-4475 [8] = test system: DU-4475
# Outline: (§2)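 Two sequential readouts followed a 72 h incubation of breast cancer cell lines with compound at 5 concentrations in 10-fold steps over a compound-specific 10,000-fold range: CellTox Green fluorescence (485/520 nm) for cell death, then CellTiter-Glo luminescence, after 10 min at room temperature, for viability. Each plate was normalised to 0.1 % DMSO and a positive kill control. Dose-response curves were fitted for EC50, censored at the top concentration.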
# HCC1937 [9] = test system: HCC1937; remark: listed apart in the source
# Outline: as §2
# CAL-120 [10] = test system: CAL-120
# Outline: as §2
# MFM-223 [11] = test system: MFM-223
# Outline: as §2
# BT-549 [12] = test system: BT-549
# Outline: as §2
# CAL-85-1 [13] = test system: CAL-85-1; remark: listed apart in the source
# Outline: as §2
# MDA-MB-453 [14] = test system: MDA-MB-453; remark: listed apart in the source
# Outline: as §2
# CAL-148 [15] = test system: CAL-148
# Outline: as §2
# HCC1599 = test system: HCC1599
# Outline: as §2
# SK-BR-3 [16] = test system: SK-BR-3
# Outline: as §2
# MDA-MB-231 [17] = test system: MDA-MB-231; remark: listed apart in the source
# Outline: as §2
# HCC1143 [18] = test system: HCC1143; remark: listed apart in the source
# Outline: as §2
# HDQ-P1 [19] = test system: HDQ-P1
# Outline: as §2
# DU-4475 [20] = test system: DU-4475; remark: listed apart in the source
# Outline: (§3)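 Compound dissolved in 5 µl medium was placed in 384-well plates before 20 µl of breast cancer cell suspension was added, and the plates were incubated for 72 h. Cells then received 2.5 µl CellTiter-Blue for 2 h at 37 °C, and fluorescence was read at 560/590 nm. EC50 values come from percent-inhibition dose-response fits that were censored at the highest concentration, with plates normalised to vehicle and a positive kill control and rows with a zero drug sensitivity score excluded.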
# CAL-85-1 [21] = test system: CAL-85-1; remark: listed apart in the source
# Outline: as §3
# MDA-MB-453 [22] = test system: MDA-MB-453; remark: listed apart in the source
# Outline: as §3
# CAL-148 [23] = test system: CAL-148; remark: listed apart in the source
# Outline: as §3
# HDQ-P1 [24] = test system: HDQ-P1; remark: listed apart in the source
# Outline: as §3
# CAL-51 [25] = test system: CAL-51; remark: listed apart in the source
# Outline: as §3
# HDQ-P1 [26] = test system: HDQ-P1; remark: listed apart in the source
# Method: as §1
# HCC1937 [27] = test system: HCC1937; remark: listed apart in the source
# Outline: as §3
# CAL-120 [28] = test system: CAL-120; remark: listed apart in the source
# Outline: as §3
# MDA-MB-468 [29] = test system: MDA-MB-468
# Outline: as §3
# MFM-223 [30] = test system: MFM-223; remark: listed apart in the source
# Outline: as §3
# BT-549 [31] = test system: BT-549; remark: listed apart in the source
# Outline: as §3
# BT-474 [32] = test system: BT-474; remark: listed apart in the source
# Outline: as §3
# Hs578T [33] = test system: Hs578T
# Outline: as §3
# SK-BR-3 [34] = test system: SK-BR-3; remark: listed apart in the source
# Outline: as §3
# MDA-MB-436 [35] = test system: MDA-MB-436
# Outline: as §3
# MDA-MB-231 [36] = test system: MDA-MB-231; remark: listed apart in the source
# Outline: as §3
# HCC1143 [37] = test system: HCC1143; remark: listed apart in the source
# Outline: as §3
# CAL-148 [38] = test system: CAL-148; remark: listed apart in the source
# Method: as §1
# MDA-MB-436 [39] = test system: MDA-MB-436; remark: listed apart in the source
# Method: as §1
# MCF-10A = test system: MCF-10A
# Outline: as §2
# BT-549 [40] = test system: BT-549; remark: listed apart in the source
# Method: as §1
# MDA-MB-468 [41] = test system: MDA-MB-468; remark: listed apart in the source
# Method: as §1
# Hs578T [42] = test system: Hs578T; remark: listed apart in the source
# Method: as §1
# Hs578T [43] = test system: Hs578T; remark: listed apart in the source
# Outline: as §2
# MDA-MB-436 [44] = test system: MDA-MB-436; remark: listed apart in the source
# Outline: as §2
smiles,measurement,setting,value
O=C(CCCCCCC(=O)Nc1ccc([C@H]2O[C@@H](CSc3nc(-c4ccccc4)c(-c4ccccc4)o3)C[C@@H](c3ccc(CO)cc3)O2)cc1)NO [Tubacin],"EC50, CellTox Green",HCC1937 [1],124 nM
same,"EC50, CellTox Green",CAL-85-1 [2],3160 nM
same,"EC50, CellTox Green",BT-474 [3],1880 nM
same,"EC50, CellTox Green",MDA-MB-453 [4],8370 nM
same,"EC50, CellTox Green",MDA-MB-231 [5],2010 nM
same,"EC50, CellTox Green",HCC1143 [6],6850 nM
same,"EC50, CellTox Green",CAL-51 [7],2070 nM
same,"EC50, CellTiter-Glo",DU-4475 [8],1480 nM
same,"EC50, CellTiter-Glo",HCC1937 [9],4670 nM
same,"EC50, CellTiter-Glo",CAL-120 [10],1610 nM
same,"EC50, CellTiter-Glo",MFM-223 [11],3590 nM
same,"EC50, CellTiter-Glo",BT-549 [12],7350 nM
same,"EC50, CellTiter-Glo",CAL-85-1 [13],2080 nM
same,"EC50, CellTiter-Glo",MDA-MB-453 [14],1750 nM
same,"EC50, CellTiter-Glo",CAL-148 [15],2900 nM
same,"EC50, CellTiter-Glo",HCC1599,3820 nM
same,"EC50, CellTiter-Glo",SK-BR-3 [16],8750 nM
same,"EC50, CellTiter-Glo",MDA-MB-231 [17],2430 nM
same,"EC50, CellTiter-Glo",HCC1143 [18],6400 nM
same,"EC50, CellTiter-Glo",HDQ-P1 [19],3460 nM
C[C@@H](Oc1cc(-c2cnn(C3CCNCC3)c2)cnc1N)c1c(Cl)ccc(F)c1Cl [Crizotinib],"EC50, CellTiter-Blue viability",DU-4475 [20],4940 nM
same,"EC50, CellTiter-Blue viability",CAL-85-1 [21],6530 nM
same,"EC50, CellTiter-Blue viability",MDA-MB-453 [22],4070 nM
same,"EC50, CellTiter-Blue viability",CAL-148 [23],3570 nM
same,"EC50, CellTiter-Blue viability",HDQ-P1 [24],6970 nM
same,"EC50, CellTiter-Blue viability",CAL-51 [25],3140 nM
same,"EC50, CellTox Green",HDQ-P1 [26],> 1000 nM
same,"EC50, CellTiter-Blue viability",HCC1937 [27],2280 nM
same,"EC50, CellTiter-Blue viability",CAL-120 [28],2640 nM
same,"EC50, CellTiter-Blue viability",MDA-MB-468 [29],3640 nM
same,"EC50, CellTiter-Blue viability",MFM-223 [30],3720 nM
same,"EC50, CellTiter-Blue viability",BT-549 [31],7180 nM
same,"EC50, CellTiter-Blue viability",BT-474 [32],3540 nM
same,"EC50, CellTiter-Blue viability",Hs578T [33],7690 nM
same,"EC50, CellTiter-Blue viability",SK-BR-3 [34],4160 nM
same,"EC50, CellTiter-Blue viability",MDA-MB-436 [35],275 nM
same,"EC50, CellTiter-Blue viability",MDA-MB-231 [36],1360 nM
same,"EC50, CellTiter-Blue viability",HCC1143 [37],8170 nM
CN(C)/N=N/c1[nH]cnc1C(N)=O [Dacarbazine],"EC50, CellTiter-Glo",CAL-120 [10],> 10000 nM
O=C1CCC(N2C(=O)c3ccccc3C2=O)C(=O)N1 (stereo not given) [Thalidomide],"EC50, CellTox Green",CAL-148 [38],> 10000 nM
C[C@]12CC[C@@H]3c4ccc(O)cc4C[C@@H](CCCCCCCCC[S+]([O-])CCCC(F)(F)C(F)(F)F)[C@H]3[C@@H]1CC[C@@H]2O (stereo not given in full) [Fulvestrant],"EC50, CellTiter-Blue viability",MFM-223 [30],74.5 nM
COc1cc2ncnc(Nc3ccc(F)c(Cl)c3)c2cc1NC(=O)/C=C/CN1CCCCC1 [Dacomitinib],"EC50, CellTox Green",CAL-85-1 [2],564 nM
same,"EC50, CellTox Green",BT-474 [3],82.4 nM
same,"EC50, CellTox Green",MDA-MB-436 [39],319 nM
same,"EC50, CellTiter-Glo",CAL-85-1 [13],56.8 nM
same,"EC50, CellTiter-Glo",MDA-MB-453 [14],74.8 nM
same,"EC50, CellTiter-Glo",SK-BR-3 [16],26.3 nM
same,"EC50, CellTiter-Glo",MCF-10A,6.27 nM
same,"EC50, CellTiter-Glo",HDQ-P1 [19],3.24 nM
O=P1(NCCCl)OCCCN1CCCl (stereo not given) [Ifosfamide],"EC50, CellTox Green",BT-549 [40],> 10000 nM
same,"EC50, CellTox Green",MDA-MB-436 [39],> 10000 nM
Cn1c(CCCC(=O)O)nc2cc(N(CCCl)CCCl)ccc21 [Bendamustine],"EC50, CellTiter-Blue viability",SK-BR-3 [34],> 10000 nM
NC(=O)Nc1cc(-c2cccc(F)c2)sc1C(=O)N[C@H]1CCCNC1 [AZD7762],"EC50, CellTox Green",MDA-MB-468 [41],26.5 nM
same,"EC50, CellTox Green",CAL-85-1 [2],75.8 nM
same,"EC50, CellTox Green",Hs578T [42],2.65 nM
same,"EC50, CellTox Green",MDA-MB-231 [5],745 nM
same,"EC50, CellTox Green",CAL-51 [7],500 nM
same,"EC50, CellTiter-Glo",HCC1937 [9],593 nM
same,"EC50, CellTiter-Glo",CAL-120 [10],255 nM
same,"EC50, CellTiter-Glo",BT-549 [12],131 nM
same,"EC50, CellTiter-Glo",CAL-85-1 [13],112 nM
same,"EC50, CellTiter-Glo",MDA-MB-453 [14],672 nM
same,"EC50, CellTiter-Glo",Hs578T [43],467 nM
same,"EC50, CellTiter-Glo",HCC1599,236 nM
same,"EC50, CellTiter-Glo",SK-BR-3 [16],458 nM
same,"EC50, CellTiter-Glo",MDA-MB-436 [44],237 nM
same,"EC50, CellTiter-Glo",MDA-MB-231 [17],193 nM
same,"EC50, CellTiter-Glo",MCF-10A,499 nM
same,"EC50, CellTiter-Glo",HCC1143 [18],361 nM
same,"EC50, CellTiter-Glo",HDQ-P1 [19],570 nM
